# Target: full length MPS1 (Homo sapiens (Human), UniProt P33981)
# Assay: Measurement of Inhibition of MPS1 Kinase
# Type: biochemical
# Details: full length MPS1 12.5 nM or 3 nM, H236 peptide 5 μM, ATP 10 μM, 60 min at room temperature, Caliper EZ reader II; read-out: MPS1 IC50
# Protocol: Measurement of Inhibition of MPS1 Kinase
# (5 μM), ATP (10 μM), either DMSO (1% v/v) or the test compound (in the range 0.25 nM-100 μM in 1% DMSO) and assay buffer (50 mM HEPES (pH 7.0), 0.02% NaN3, 0.01% BSA, 0.1 mM Orthovandate, […], 1 μM DTT, Roche protease inhibitor). The reaction was carried out for 60 min at room temperature and stopped by the addition of buffer (10 μl) containing 20 mM EDTA, 0.05% (v/v) Brij-35, in 0.1M HEPES-buffered saline (Free acid, Sigma, UK). The plate was read on a Caliper EZ reader II (Caliper Life Sciences).
# The reader provides a Software package (‘Reviewer’) which converts the peak heights into % conversion by measuring both product and substrate peak and also allows selection of control well which represent 0% and 100% inhibition, respectively. The % inhibition of the compounds is calculated relative to the means of selected control wells. IC50s are determined by testing the compounds at a range of concentrations from 0.25 nM-100 μM. The % inhibitions at each concentration are then fitted to a 4 parameter logistic fit: y=(a+((b−a)/(1+((c/x^d)))) where a=asym min, b=asym max, c=IC50 and d=hill coefficient
# Chain of full length MPS1 (P33981 whole entry): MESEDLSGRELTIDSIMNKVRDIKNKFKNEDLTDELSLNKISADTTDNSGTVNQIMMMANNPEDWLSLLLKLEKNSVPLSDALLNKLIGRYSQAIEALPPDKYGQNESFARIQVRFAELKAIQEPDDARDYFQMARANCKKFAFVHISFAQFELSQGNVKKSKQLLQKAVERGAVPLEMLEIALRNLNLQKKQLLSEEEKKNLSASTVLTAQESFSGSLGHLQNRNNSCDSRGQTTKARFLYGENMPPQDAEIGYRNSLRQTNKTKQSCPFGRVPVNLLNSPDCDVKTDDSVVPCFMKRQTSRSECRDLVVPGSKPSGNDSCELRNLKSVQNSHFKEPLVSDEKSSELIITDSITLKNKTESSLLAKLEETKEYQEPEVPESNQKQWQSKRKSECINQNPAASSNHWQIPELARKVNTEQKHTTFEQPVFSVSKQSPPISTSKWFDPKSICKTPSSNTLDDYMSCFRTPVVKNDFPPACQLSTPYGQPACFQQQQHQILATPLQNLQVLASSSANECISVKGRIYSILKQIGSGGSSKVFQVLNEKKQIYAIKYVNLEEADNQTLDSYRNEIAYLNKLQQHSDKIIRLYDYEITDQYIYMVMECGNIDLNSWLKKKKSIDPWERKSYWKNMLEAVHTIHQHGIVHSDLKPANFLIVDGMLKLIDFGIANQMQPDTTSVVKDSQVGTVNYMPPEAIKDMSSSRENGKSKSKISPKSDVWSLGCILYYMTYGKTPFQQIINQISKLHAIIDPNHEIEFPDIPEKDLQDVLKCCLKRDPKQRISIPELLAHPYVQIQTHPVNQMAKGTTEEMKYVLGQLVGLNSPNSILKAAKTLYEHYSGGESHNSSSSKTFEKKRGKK
row,SMILES,IC50 [nM]
1,"CCOc1cc(-c2nncn2C)ccc1Nc1ncc2cc(C)nc(N3CCCC(OC)C3)c2n1 (racemic) [Example 47, Racemic-N-(2-ethoxy-4-(4-methyl-4H-1,2,4-triazol-3-yl)phenyl)-8-(3-methoxypiperidin-1-yl)-6-methylpyrido[3,4-d]pyrimidin-2-amine]",6
2,"CCOc1cc(-c2nncn2C)ccc1Nc1ncc2cc(C)nc(N3CCOC(C)C3)c2n1 (racemic) [Example 48, Racemic-N-(2-ethoxy-4-(4-methyl-4H-1,2,4-triazol-3-yl)phenyl)-6-methyl-8-(2-methylmorpholino)pyrido[3,4-d]pyrimidin-2-amine]",3
3,"COc1cc(-c2cnnn2C)ccc1Nc1ncc2cc(C)nc(NCC(C)(C)C)c2n1 [Example 1, N2-(2-methoxy-4-(1-methyl-1H-1,2,3-triazol-5-yl)phenyl)-6-methyl-N8-neopentylpyrido[3,4-d]pyrimidine-2,8-diamine]",0.5
4,"CCOc1cc(-c2nncn2C)ccc1Nc1ncc2cc(C)nc(NCC3(C)CCOC3)c2n1 (stereo not drawn) [Example 2, N2-(2-ethoxy-4-(4-methyl-4H-1,2,4-triazol-3-yl)phenyl)-6-methyl-N8-((3-methyltetrahydrofuran-3-yl)methyl)pyrido[3,4-d]pyrimidine-2,8-diamine]",2
5,"CCOc1cc(-c2nncn2C)ccc1Nc1ncc2cc(C)nc(N3CC(C)(C#N)C3)c2n1 [Example 3, 1-(2-((2-ethoxy-4-(4-methyl-4H-1,2,4-triazol-3-yl)phenyl)amino)-6-methylpyrido[3,4-d]pyrimidin-8-yl)-3-methylazetidine-3-carbonitrile]",3
6,"CCOc1cc(-c2nncn2C)ccc1Nc1ncc2cc(C)nc(N3CC4(CCOCC4)C3)c2n1 [Example 4, N-(2-ethoxy-4-(4-methyl-4H-1,2,4-triazol-3-yl)phenyl)-6-methyl-8-(7-oxa-2-azaspiro[3.5]nonan-2-yl)pyrido[3,4-d]pyrimidin-2-amine]",2
7,"CCOc1cc(-c2nncn2C)ccc1Nc1ncc2cc(C)nc(N3CCC(C#N)CC3)c2n1 [Example 5, 1-(2-((2-ethoxy-4-(4-methyl-4H-1,2,4-triazol-3-yl)phenyl)amino)-6-methylpyrido[3,4-d]pyrimidin-8-yl)piperidine-4-carbonitrile]",3
8,"CCOc1cc(-c2nncn2C)ccc1Nc1ncc2cc(C)nc(NC3CCOCC3)c2n1 [Example 6, N2-(2-ethoxy-4-(4-methyl-4H-1,2,4-triazol-3-yl)phenyl)-6-methyl-N8-(tetrahydro-2H-pyran-4-yl)pyrido[3,4-d]pyrimidine-2,8-diamine]",5
9,"CCOc1cc(-c2nnc(C)n2C)ccc1Nc1ncc2cc(C)nc(NCC(C)(C)C)c2n1 [Example 7, N2-(4-(4,5-dimethyl-4H-1,2,4-triazol-3-yl)-2-ethoxyphenyl)-6-methyl-N8-neopentylpyrido[3,4-d]pyrimidine-2,8-diamine]",4
10,"CCOc1cc(-c2nncn2C)ccc1Nc1ncc2cc(C)nc(NCC3(O)CCC3)c2n1 [Example 8, 1-(((2-((2-ethoxy-4-(4-methyl-4H-1,2,4-triazol-3-yl)phenyl)amino)-6-methylpyrido[3,4-d]pyrimidin-8-yl)amino)methyl)cyclobutanol]",3
11,"CCOc1cc(-c2nncn2C)ccc1Nc1ncc2cc(C)nc(N3CC(C)(O)C3)c2n1 [Example 9, 1-(2-((2-ethoxy-4-(4-methyl-4H-1,2,4-triazol-3-yl)phenyl)amino)-6-methylpyrido[3,4-d]pyrimidin-8-yl)-3-methylazetidin-3-ol]",4
12,"COc1cc(-c2ccn(C)n2)ccc1Nc1ncc2cc(C)nc(NCC(C)(C)C)c2n1 [Example 11, N2-(2-methoxy-4-(1-methyl-1H-pyrazol-3-yl)phenyl)-6-methyl-N8-neopentylpyrido[3,4-d]pyrimidine-2,8-diamine]",36
13,"COc1cc(-c2nccn2C)ccc1Nc1ncc2cc(C)nc(NCC(C)(C)C)c2n1 [Example 12, N2-(2-methoxy-4-(1-methyl-1H-imidazol-2-yl)phenyl)-6-methyl-N8-neopentylpyrido[3,4-d]pyrimidine-2,8-diamine]",4
14,"COc1cc(-c2ccnn2C)ccc1Nc1ncc2cc(C)nc(NCC(C)(C)C)c2n1 [Example 13, N2-(2-methoxy-4-(1-methyl-1H-pyrazol-5-yl)phenyl)-6-methyl-N8-neopentylpyrido[3,4-d]pyrimidine-2,8-diamine]",18
15,"COc1cc(-c2ncco2)ccc1Nc1ncc2cc(C)nc(NCC(C)(C)C)c2n1 [Example 14, N2-(2-methoxy-4-(oxazol-2-yl)phenyl)-6-methyl-N8-neopentylpyrido[3,4-d]pyrimidine-2,8-diamine]",59
16,"Cc1cc2cnc(Nc3ccc(-c4nncn4C)cc3OC(F)F)nc2c(NCC(C)(C)C)n1 [Example 15, N2-(2-(difluoromethoxy)-4-(4-methyl-4H-1,2,4-triazol-3-yl)phenyl)-6-methyl-N8-neopentylpyrido[3,4-d]pyrimidine-2,8-diamine]",1
17,"COc1cc(-c2nnnn2C)ccc1Nc1ncc2cc(C)nc(NCC(C)(C)C)c2n1 [Example 16, N2-(2-methoxy-4-(1-methyl-1H-tetrazol-5-yl)phenyl)-6-methyl-N8-neopentylpyrido[3,4-d]pyrimidine-2,8-diamine]",5
18,"COc1cc(-c2oc(C)nc2C)ccc1Nc1ncc2cc(C)nc(NCC(C)(C)C)c2n1 [Example 17, N2-(4-(2,4-dimethyloxazol-5-yl)-2-methoxyphenyl)-6-methyl-N8-neopentylpyrido[3,4-d]pyrimidine-2,8-diamine]",43
19,"COc1cc(-c2ncc(C)n2C)ccc1Nc1ncc2cc(C)nc(NCC(C)(C)C)c2n1 [Example 18, N2-(4-(1,5-dimethyl-1H-imidazol-2-yl)-2-methoxyphenyl)-6-methyl-N8-neopentylpyrido[3,4-d]pyrimidine-2,8-diamine]",4
20,"COc1cc(-c2cnc(C)n2C)ccc1Nc1ncc2cc(C)nc(N3CC(C)(C)C3)c2n1 [Example 19, N-(4-(1,2-dimethyl-1H-imidazol-5-yl)-2-methoxyphenyl)-8-(3,3-dimethylazetidin-1-yl)-6-methylpyrido[3,4-d]pyrimidin-2-amine]",5
21,"COc1cc(-c2cnc(C)n2C)ccc1Nc1ncc2cc(C)nc(N3CC4(CCOCC4)C3)c2n1 [Example 20, N-(4-(1,2-dimethyl-1H-imidazol-5-yl)-2-methoxyphenyl)-6-methyl-8-(7-oxa-2-azaspiro[3.5]nonan-2-yl)pyrido[3,4-d]pyrimidin-2-amine]",12
22,"COc1cc(-c2nnc(C)n2C)ccc1Nc1ncc2cc(C)nc(NCC(C)(C)C)c2n1 [Example 21, N2-(4-(4,5-dimethyl-4H-1,2,4-triazol-3-yl)-2-methoxyphenyl)-6-methyl-N8-neopentylpyrido[3,4-d]pyrimidine-2,8-diamine]",1
23,"CCOc1cc(-c2nnc(C)n2C)ccc1Nc1ncc2cc(C)nc(N3CC(C)(C)C3)c2n1 [Example 22, N-(4-(4,5-dimethyl-4H-1,2,4-triazol-3-yl)-2-ethoxyphenyl)-8-(3,3-dimethylazetidin-1-yl)-6-methylpyrido[3,4-d]pyrimidin-2-amine]",20
24,"CCOc1cc(-c2nnc(C)n2C)ccc1Nc1ncc2cc(C)nc(N3CC4(CCOCC4)C3)c2n1 [Example 23, N-(4-(4,5-dimethyl-4H-1,2,4-triazol-3-yl)-2-ethoxyphenyl)-6-methyl-8-(7-oxa-2-azaspiro[3.5]nonan-2-yl)pyrido[3,4-d]pyrimidin-2-amine]",4
